# According to publication PMC10671849, “Synthesis and Evaluation of Marine-Inspired Compounds Result in Hybrids with Antitrypanosomal and Antileishmanial Activities” (Marine Drugs, 2023):
# Where two headings read alike, the source gives them in different places.
# Key:
# [1] = system: L. infantum promastigotes; assay: Anti-Leishmania activity, resazurin-based assay; type: cell-based; conditions: 72 h incubation, resazurin, highest concentration tested 40 µM, 95% CI in parentheses, read-out: Anti-Parasitic Activity IC50 (µM) 95% CI, L. infantum Promastigotes
# Protocol: Promastigotes from the L. infantum strain (MHOM/MA/67/ITMAP-263) were grown in 5-mL T25 flasks in Schneider’s insect medium supplemented with 10% heat-inactivated fetal bovine serum (FBS), 200 U/mL penicillin/streptomycin, 6 µg/mL Phenol Red, and 5 mM HEPES. The cultures were maintained in an incubator at 27 °C and diluted to 2 × 10^5/mL every 5 days. For the assays, the parasites used were equivalent to late/log with 2 or 3 days of culture.
# The compounds’ efficacy against L. infantum promastigotes was evaluated using a resazurin-based assay. Parasites were added to 100 µL of serial dilutions of compounds in supplemented complete medium at a cell density of 5 × 10^5/mL. As a quality control, a dose–response curve to the antileishmanial drug miltefosine was included in all the assays. The final volume of the assay was 200 µL/well. Each condition was carried out in duplicate. Following 72 h of incubation at the specific conditions for parasites, 20 µL of a 0.5 mM resazurin solution was added, and the plates were incubated for a further 4 h under the same conditions. Fluorescence was measured at 544 nm and 590 nm excitation and emission wavelengths, respectively, using a Synergy 2 Multi-Mode Reader (Biotek, Winooski, VT, USA). Results are shown as % of parasite growth inhibition compared to control (untreated parasites) and represent the average of at least three independent experiments. The effect was evaluated by the determination of the IC50 value (concentration required to inhibit growth in 50%) and was calculated by non-linear regression curves using GraphPad Prism software, version 8.1.1 for Windows (GraphPad Software, San Diego, CA, USA).
# [2] = Cytotoxicity MTT assay on PMA-differentiated THP-1 macrophages; type: cell-based; conditions: human
# Protocol: A human leukemia cell line, THP-1 (ATCC® TIB-202™), was cultured in RPMI-1640 medium supplemented with 10% heat-inactivated fetal bovine serum (FBS), 2 mM L-glutamine, 100 IU/mL penicillin/streptomycin, and 20 mM HEPES. The cell line was maintained in a humidified incubator at 37 °C and 5% CO2 by subculture every 3 days in 20 mL of media at a concentration of 2 × 10^5/mL in a T75 flask. All cell culture reagents were purchased from Lonza-Bioscience (Morrisville, NC, USA).
# The cytotoxicity effect of compounds on THP-1-derived macrophages was assessed by colorimetric MTT assay (3-(4,5-dimethylthiazol-2-yl)-2,5-diphenyl tetrazolium bromide). Briefly, THP-1 cells were suspended in RPMI complete medium at a density of 1 × 10^6 cells/mL and 100 μL/well and were seeded in a 96-well plate and differentiated into macrophages by addition of 40 ng/mL of phorbol-myristate 13-acetate (PMA, Sigma, Saint Louis, MI, USA) for 24 h, followed by replacement with fresh medium for 24 more h. Subsequently, the cells were incubated with 100 μL of compounds ranging from 100 to 12.5 μM after dilution in the RPMI complete medium. Each condition was carried out in quadruplicate. After 72 h of incubation at 37 °C and 5% CO2, the medium was removed, and 200 μL of 0.5 mg/mL MTT solution diluted in RPMI was added. The plates were incubated for an additional 4 h. Then, 160 μL of media was removed, and the same volume of 2-propanol was added. Absorbance was read at 570 nm using a Synergy 2 Multi-Mode Reader (Biotek, Winooski, VT, USA). Cytotoxicity was evaluated by the determination of the CC50 value (drug concentration that reduced the percentage of viable cells by 50%) and calculated by non-linear regression analysis using GraphPad Prism software, version 8.1.1 for Windows (GraphPad Software, San Diego, CA, USA). The results represent the average of at least three independent experiments. For each compound, the selectivity index (SI) was calculated as the ratio between cytotoxicity in THP-1 (CC50, 72 h) and activity against parasites (IC50, 72 h).
# [3] = system: T. brucei Lister 427 bloodstream forms; assay: Anti-T. brucei activity, resazurin-based assay on bloodstream forms; type: cell-based, Trypanosoma brucei; conditions: Trypanosoma brucei; bloodstream forms, 72 h incubation, resazurin; read-out: Anti-Parasitic Activity IC50 (µM) 95% CI, T. brucei
# Protocol: T. brucei Lister 427 bloodstream forms were grown in a humidified incubator at 37 °C and 5% CO2 in complete HMI-9 medium supplemented with 10% heat-inactivated fetal bovine serum (FBS) and 100 UI/mL penicillin/streptomycin. Parasite maintenance was performed in T25 ventilated flasks by subpassage at a concentration of 1 × 10^4/mL every 2 days in T25 ventilated flasks. Luciferase-expressing L. infantum (MHOM/MA/67/ITMAP-263) axenic amastigotes expressing episomal luciferase were maintained in MAA20 [31] at 37 °C in a 5% CO2 environment with subculture every 7 days at 1 × 10^6/mL in 5-mL T25 ventilated flasks.
# The compounds’ efficacy against bloodstream-stage trypomastigotes was evaluated using a resazurin-based assay. Parasites were added to 100 µL of serial dilutions of compounds in supplemented complete medium at a cell density of 5 × 10^3/mL. As a quality control, a dose–response curve for the antitrypanosomal pentamidine was included in all the assays. The final volume of the assay was 200 µL/well. Each condition was carried out in duplicate. Following 72 h of incubation at the specific conditions for parasites, 20 […] of a 0.5 mM resazurin solution was added, and the plates were incubated for a further 4 h under the same conditions. Fluorescence was measured at 544 nm and 590 nm excitation and emission wavelength, respectively, using a Synergy 2 Multi-Mode Reader (Biotek, Winooski, VT, USA). The results are shown as % of parasite growth inhibition compared to control (untreated parasites) and represent the average of at least three independent experiments. The effect was evaluated by the determination of the IC50 value (concentration required to inhibit growth in 50%) and calculated by non-linear regression curves using GraphPad Prism software, version 8.1.1 for Windows (GraphPad Software, San Diego, CA, USA).
IC50 [1],IC50 [3],Structure (SMILES),"CC50 at 72 h ([2]; PMA-differentiated THP-1 macrophages, 72 h, MTT, 100 to 12.5 µM tested, read-out: Cytotoxicity CC50 (µM) 95% CI, THP-1)",CC50 at 72 h [2]
11 µM,,"CCCCCCCCCCCCCCCCOP(=O)([O-])OCC[N+](C)(C)C [Miltefosine, miltefosine, reference compound]",29.4 µM,
,0.0056 µM,"N=C(N)c1ccc(OCCCCCOc2ccc(C(=N)N)cc2)cc1 [Pentamidine, pentamidine, reference compound]",,37.7 µM
